Results reported in US8486920B2, “Composition and method for controlling plant diseases” (priority 2008, dated 2013).
Where two headings read alike, the source gives them in different places.

System: Pythium ultimum, pathogen of cucumber damping-off
Format: in vivo
Details: cucumber (Sagamihanjiro) seed treatment, 18° C., 13 days
Source text: An acetone solution of ethaboxam and an acetone solution of tolclofos-methyl were mixed to prepare mixed liquids containing ethaboxam and tolclofos-methyl in predetermined concentration. These mixed liquids were adhered on the surface of cucumber (Sagamihanjiro) seeds and allowed to stand still overnight. A plastic pot was filled with sandy soil and the seeds were disseminated on it. Then the seeds were covered with sandy soil which had been mixed with a bran medium on which Pythium ultimum, pathogen of cucumber damping-off, had been allowed to grow. They were irrigated and allowed to grow at 18° C. under humidity for 13 days, and thereafter control effect was checked.
As a comparison, acetone solutions containing ethaboxam in the predetermined concentration and acetone solutions containing tolclofos-methyl in the predetermined concentration were prepared and subjected to similar tests.
The incidence of disease was calculated by Equation 1 and the control value was calculated by Equation 2 based on the incidence of disease.
A: Incidence of disease of plant in untreated area
B: Incidence of disease of plant in treated area
E=X+Y−(X×Y)/100 “Equation 2”

SMILES	Actual control value (ethaboxam alone 5 g ai/100 kg-seed)	Actual control value (ethaboxam alone 10 g ai/100 kg-seed)	Actual control value (tolclofos-methyl alone 100 g ai/100 kg-seed)	Actual control value (tolclofos-methyl alone 200 g ai/100 kg-seed)
CCNc1nc(CC)c(C(=O)NC(C#N)c2cccs2)s1 (stereo not shown) [Ethaboxam]	25%	58%	–	–
COP(=S)(OC)Oc1c(Cl)cc(C)cc1Cl [tolclofos-methyl]	–	–	0.0%	0.0%
